Experimental data: ChEMBL document CHEMBL3046114, “Synthesis and phytotoxic activity of novel acylthiourea and 2H-1,2,4-thiadiazolo[2,3-]pyrimidine derivatives” (2012)

What follows are compounds tested on Chenopodium ficifolium (assay: Phytotoxicity against Chenopodium ficifolium germinated seed assessed as growth inhibition at 10 mg/L after 72 hr by culture dish method). Conditions: read-out: GI.
Assay type: functional
For CSc1cc(C)nc2n/c(=N/C(=O)c3c(-c4ccc(Cl)cc4Cl)noc3C)sn12, the inhibition of growth at 10 µg/mL was 21.9%.
COc1cc(Cl)nc2n/c(=N/C(=O)c3c(-c4ccc(Cl)cc4Cl)noc3C)sn12 was tested, and the inhibition of growth at 10 µg/mL was 19.3%.
COc1cc(OC)n2s/c(=N\C(=O)c3c(-c4ccc(Cl)cc4Cl)noc3C)nc2n1 gave an inhibition of growth at 10 µg/mL of 28.9%.
Work on COc1cc(SC)nc2n/c(=N/C(=O)c3c(-c4ccc(Cl)cc4Cl)noc3C)sn12 yielded an inhibition of growth at 10 µg/mL of 23.8%.
Cc1cc(C)nc(NC(=S)NC(=O)c2c(-c3ccc(Cl)cc3Cl)noc2C)n1 showed an inhibition of growth at 10 µg/mL of 16.9%.
Work on Cc1cc(O)nc(NC(=S)NC(=O)c2c(-c3ccc(Cl)cc3Cl)noc2C)n1 yielded an inhibition of growth at 10 µg/mL of -5.86%.
Compound Cc1cc(Cl)nc(NC(=S)NC(=O)c2c(-c3ccc(Cl)cc3Cl)noc2C)n1 has an inhibition of growth at 10 µg/mL of 28.9%.
With COc1cc(C)nc(NC(=S)NC(=O)c2c(-c3ccc(Cl)cc3Cl)noc2C)n1 the inhibition of growth at 10 µg/mL was 15.3%.
For CCOC(=O)[C@@H](C)Oc1ccc(Oc2nc3ccc(Cl)cc3o2)cc1 [FENOXAPROP-P-ETHYL], the inhibition of growth at 10 µg/mL was 16.8%.

The compounds below were run on Chenopodium ficifolium (assay: Phytotoxicity against Chenopodium ficifolium germinated seed assessed as growth inhibition at 100 mg/L after 72 hr by culture dish method). Conditions: read-out: GI.
Assay type: functional
CSc1cc(C)nc2n/c(=N/C(=O)c3c(-c4ccc(Cl)cc4Cl)noc3C)sn12 gave an inhibition of growth at 100 µg/mL of 75.2%.
COc1cc(Cl)nc2n/c(=N/C(=O)c3c(-c4ccc(Cl)cc4Cl)noc3C)sn12 gave an inhibition of growth at 100 µg/mL of 65.9%.
Work on COc1cc(OC)n2s/c(=N\C(=O)c3c(-c4ccc(Cl)cc4Cl)noc3C)nc2n1 yielded an inhibition of growth at 100 µg/mL of 82.7%.
COc1cc(SC)nc2n/c(=N/C(=O)c3c(-c4ccc(Cl)cc4Cl)noc3C)sn12 gave an inhibition of growth at 100 µg/mL of 68.3%.
Cc1cc(C)nc(NC(=S)NC(=O)c2c(-c3ccc(Cl)cc3Cl)noc2C)n1 was tested, and the inhibition of growth at 100 µg/mL was 65.4%.
In the case of Cc1cc(O)nc(NC(=S)NC(=O)c2c(-c3ccc(Cl)cc3Cl)noc2C)n1, the inhibition of growth at 100 µg/mL is reported as 46.7%.
Cc1cc(Cl)nc(NC(=S)NC(=O)c2c(-c3ccc(Cl)cc3Cl)noc2C)n1 gave an inhibition of growth at 100 µg/mL of 48.3%.
COc1cc(C)nc(NC(=S)NC(=O)c2c(-c3ccc(Cl)cc3Cl)noc2C)n1 showed an inhibition of growth at 100 µg/mL of 59.8%.
Work on CCOC(=O)[C@@H](C)Oc1ccc(Oc2nc3ccc(Cl)cc3o2)cc1 [FENOXAPROP-P-ETHYL] yielded an inhibition of growth at 100 µg/mL of 48.7%.

The compounds below were run on Brassica napus (assay: Phytotoxicity against Brassica napus (oilseed rape) germinated seed assessed as growth inhibition at 10 mg/L after 72 hr by culture dish method). Conditions: read-out: GI.
Assay type: functional
CSc1cc(C)nc2n/c(=N/C(=O)c3c(-c4ccc(Cl)cc4Cl)noc3C)sn12 showed an inhibition of growth at 10 µg/mL of 32.8%.
For COc1cc(Cl)nc2n/c(=N/C(=O)c3c(-c4ccc(Cl)cc4Cl)noc3C)sn12, the inhibition of growth at 10 µg/mL was 28.6%.
Work on COc1cc(OC)n2s/c(=N\C(=O)c3c(-c4ccc(Cl)cc4Cl)noc3C)nc2n1 yielded an inhibition of growth at 10 µg/mL of 49.3%.
With COc1cc(SC)nc2n/c(=N/C(=O)c3c(-c4ccc(Cl)cc4Cl)noc3C)sn12 the inhibition of growth at 10 µg/mL was 27.4%.
With Cc1cc(C)nc(NC(=S)NC(=O)c2c(-c3ccc(Cl)cc3Cl)noc2C)n1 the inhibition of growth at 10 µg/mL was 16.1%.
Compound Cc1cc(O)nc(NC(=S)NC(=O)c2c(-c3ccc(Cl)cc3Cl)noc2C)n1 has an inhibition of growth at 10 µg/mL of 6.7%.
With Cc1cc(Cl)nc(NC(=S)NC(=O)c2c(-c3ccc(Cl)cc3Cl)noc2C)n1 the inhibition of growth at 10 µg/mL was 8.36%.
For COc1cc(C)nc(NC(=S)NC(=O)c2c(-c3ccc(Cl)cc3Cl)noc2C)n1, the inhibition of growth at 10 µg/mL was 15.7%.
CCOC(=O)[C@@H](C)Oc1ccc(Oc2nc3ccc(Cl)cc3o2)cc1 [FENOXAPROP-P-ETHYL] was tested, and the inhibition of growth at 10 µg/mL was 16.4%.

These compounds were tested on Brassica napus (assay: Phytotoxicity against Brassica napus (oilseed rape) germinated seed assessed as growth inhibition at 100 mg/L after 72 hr by culture dish method). Conditions: read-out: GI.
Assay type: functional
With CSc1cc(C)nc2n/c(=N/C(=O)c3c(-c4ccc(Cl)cc4Cl)noc3C)sn12 the inhibition of growth at 100 µg/mL was 62.8%.
COc1cc(Cl)nc2n/c(=N/C(=O)c3c(-c4ccc(Cl)cc4Cl)noc3C)sn12 was tested, and the inhibition of growth at 100 µg/mL was 70.8%.
COc1cc(OC)n2s/c(=N\C(=O)c3c(-c4ccc(Cl)cc4Cl)noc3C)nc2n1 showed an inhibition of growth at 100 µg/mL of 85.6%.
Compound COc1cc(SC)nc2n/c(=N/C(=O)c3c(-c4ccc(Cl)cc4Cl)noc3C)sn12 has an inhibition of growth at 100 µg/mL of 75.8%.
For Cc1cc(C)nc(NC(=S)NC(=O)c2c(-c3ccc(Cl)cc3Cl)noc2C)n1, the inhibition of growth at 100 µg/mL was 68%.
For Cc1cc(O)nc(NC(=S)NC(=O)c2c(-c3ccc(Cl)cc3Cl)noc2C)n1, the inhibition of growth at 100 µg/mL was 52.3%.
Work on Cc1cc(Cl)nc(NC(=S)NC(=O)c2c(-c3ccc(Cl)cc3Cl)noc2C)n1 yielded an inhibition of growth at 100 µg/mL of 50.8%.
COc1cc(C)nc(NC(=S)NC(=O)c2c(-c3ccc(Cl)cc3Cl)noc2C)n1 was tested, and the inhibition of growth at 100 µg/mL was 69.3%.
With CCOC(=O)[C@@H](C)Oc1ccc(Oc2nc3ccc(Cl)cc3o2)cc1 [FENOXAPROP-P-ETHYL] the inhibition of growth at 100 µg/mL was 42.2%.

What follows are compounds tested on Digitaria ciliaris (assay: Phytotoxicity against Digitaria ciliaris germinated seed assessed as growth inhibition at 10 mg/L after 72 hr by culture dish method). Conditions: read-out: GI.
Assay type: functional
Work on CSc1cc(C)nc2n/c(=N/C(=O)c3c(-c4ccc(Cl)cc4Cl)noc3C)sn12 yielded an inhibition of growth at 10 µg/mL of 26.8%.
With COc1cc(Cl)nc2n/c(=N/C(=O)c3c(-c4ccc(Cl)cc4Cl)noc3C)sn12 the inhibition of growth at 10 µg/mL was 16.5%.
Compound COc1cc(OC)n2s/c(=N\C(=O)c3c(-c4ccc(Cl)cc4Cl)noc3C)nc2n1 has an inhibition of growth at 10 µg/mL of 53.8%.
With COc1cc(SC)nc2n/c(=N/C(=O)c3c(-c4ccc(Cl)cc4Cl)noc3C)sn12 the inhibition of growth at 10 µg/mL was 19.8%.
For Cc1cc(C)nc(NC(=S)NC(=O)c2c(-c3ccc(Cl)cc3Cl)noc2C)n1, the inhibition of growth at 10 µg/mL was 26.5%.
Compound Cc1cc(O)nc(NC(=S)NC(=O)c2c(-c3ccc(Cl)cc3Cl)noc2C)n1 has an inhibition of growth at 10 µg/mL of -6.24%.
Cc1cc(Cl)nc(NC(=S)NC(=O)c2c(-c3ccc(Cl)cc3Cl)noc2C)n1 gave an inhibition of growth at 10 µg/mL of 10.2%.
With COc1cc(C)nc(NC(=S)NC(=O)c2c(-c3ccc(Cl)cc3Cl)noc2C)n1 the inhibition of growth at 10 µg/mL was 30.2%.
Work on CCOC(=O)[C@@H](C)Oc1ccc(Oc2nc3ccc(Cl)cc3o2)cc1 [FENOXAPROP-P-ETHYL] yielded an inhibition of growth at 10 µg/mL of 35.7%.

What follows are compounds tested on Digitaria ciliaris (assay: Phytotoxicity against Digitaria ciliaris germinated seed assessed as growth inhibition at 100 mg/L after 72 hr by culture dish method). Conditions: read-out: GI.
Assay type: functional
For CSc1cc(C)nc2n/c(=N/C(=O)c3c(-c4ccc(Cl)cc4Cl)noc3C)sn12, the inhibition of growth at 100 µg/mL was 70.6%.
For COc1cc(Cl)nc2n/c(=N/C(=O)c3c(-c4ccc(Cl)cc4Cl)noc3C)sn12, the inhibition of growth at 100 µg/mL was 72.8%.
COc1cc(OC)n2s/c(=N\C(=O)c3c(-c4ccc(Cl)cc4Cl)noc3C)nc2n1 showed an inhibition of growth at 100 µg/mL of 85.3%.
COc1cc(SC)nc2n/c(=N/C(=O)c3c(-c4ccc(Cl)cc4Cl)noc3C)sn12 showed an inhibition of growth at 100 µg/mL of 79.6%.
For Cc1cc(C)nc(NC(=S)NC(=O)c2c(-c3ccc(Cl)cc3Cl)noc2C)n1, the inhibition of growth at 100 µg/mL was 61.4%.
Cc1cc(O)nc(NC(=S)NC(=O)c2c(-c3ccc(Cl)cc3Cl)noc2C)n1 gave an inhibition of growth at 100 µg/mL of 49.3%.
Work on Cc1cc(Cl)nc(NC(=S)NC(=O)c2c(-c3ccc(Cl)cc3Cl)noc2C)n1 yielded an inhibition of growth at 100 µg/mL of 44.2%.
COc1cc(C)nc(NC(=S)NC(=O)c2c(-c3ccc(Cl)cc3Cl)noc2C)n1 was tested, and the inhibition of growth at 100 µg/mL was 60.2%.
Work on CCOC(=O)[C@@H](C)Oc1ccc(Oc2nc3ccc(Cl)cc3o2)cc1 [FENOXAPROP-P-ETHYL] yielded an inhibition of growth at 100 µg/mL of 85.6%.

The compounds below were run on Echinochloa crus-galli (assay: Phytotoxicity against Echinochloa crus-galli (barnyard grass) germinated seed assessed as growth inhibition at 10 mg/L after 72 hr by culture dish method). Conditions: read-out: GI.
Assay type: functional
CSc1cc(C)nc2n/c(=N/C(=O)c3c(-c4ccc(Cl)cc4Cl)noc3C)sn12 gave an inhibition of growth at 10 µg/mL of 37.5%.
Work on COc1cc(Cl)nc2n/c(=N/C(=O)c3c(-c4ccc(Cl)cc4Cl)noc3C)sn12 yielded an inhibition of growth at 10 µg/mL of 10.8%.
COc1cc(OC)n2s/c(=N\C(=O)c3c(-c4ccc(Cl)cc4Cl)noc3C)nc2n1 was tested, and the inhibition of growth at 10 µg/mL was 43.2%.
With COc1cc(SC)nc2n/c(=N/C(=O)c3c(-c4ccc(Cl)cc4Cl)noc3C)sn12 the inhibition of growth at 10 µg/mL was 21.4%.
In the case of Cc1cc(C)nc(NC(=S)NC(=O)c2c(-c3ccc(Cl)cc3Cl)noc2C)n1, the inhibition of growth at 10 µg/mL is reported as 18.5%.
With Cc1cc(O)nc(NC(=S)NC(=O)c2c(-c3ccc(Cl)cc3Cl)noc2C)n1 the inhibition of growth at 10 µg/mL was -9.78%.
Work on Cc1cc(Cl)nc(NC(=S)NC(=O)c2c(-c3ccc(Cl)cc3Cl)noc2C)n1 yielded an inhibition of growth at 10 µg/mL of -6.84%.
Work on COc1cc(C)nc(NC(=S)NC(=O)c2c(-c3ccc(Cl)cc3Cl)noc2C)n1 yielded an inhibition of growth at 10 µg/mL of 12.3%.
Compound CCOC(=O)[C@@H](C)Oc1ccc(Oc2nc3ccc(Cl)cc3o2)cc1 [FENOXAPROP-P-ETHYL] has an inhibition of growth at 10 µg/mL of 58.4%.

The compounds below were run on Echinochloa crus-galli (assay: Phytotoxicity against Echinochloa crus-galli (barnyard grass) germinated seed assessed as growth inhibition at 100 mg/L after 72 hr by culture dish method). Conditions: read-out: GI.
Assay type: functional
CSc1cc(C)nc2n/c(=N/C(=O)c3c(-c4ccc(Cl)cc4Cl)noc3C)sn12 showed an inhibition of growth at 100 µg/mL of 75.4%.
For COc1cc(Cl)nc2n/c(=N/C(=O)c3c(-c4ccc(Cl)cc4Cl)noc3C)sn12, the inhibition of growth at 100 µg/mL was 40.8%.
COc1cc(OC)n2s/c(=N\C(=O)c3c(-c4ccc(Cl)cc4Cl)noc3C)nc2n1 showed an inhibition of growth at 100 µg/mL of 85.6%.
COc1cc(SC)nc2n/c(=N/C(=O)c3c(-c4ccc(Cl)cc4Cl)noc3C)sn12 showed an inhibition of growth at 100 µg/mL of 55.6%.
With Cc1cc(C)nc(NC(=S)NC(=O)c2c(-c3ccc(Cl)cc3Cl)noc2C)n1 the inhibition of growth at 100 µg/mL was 64.7%.
Cc1cc(O)nc(NC(=S)NC(=O)c2c(-c3ccc(Cl)cc3Cl)noc2C)n1 was tested, and the inhibition of growth at 100 µg/mL was 46.8%.
Cc1cc(Cl)nc(NC(=S)NC(=O)c2c(-c3ccc(Cl)cc3Cl)noc2C)n1 showed an inhibition of growth at 100 µg/mL of 48.7%.
In the case of COc1cc(C)nc(NC(=S)NC(=O)c2c(-c3ccc(Cl)cc3Cl)noc2C)n1, the inhibition of growth at 100 µg/mL is reported as 61.8%.
Compound CCOC(=O)[C@@H](C)Oc1ccc(Oc2nc3ccc(Cl)cc3o2)cc1 [FENOXAPROP-P-ETHYL] has an inhibition of growth at 100 µg/mL of 71.8%.
